Measurements published in patent publication US20100183600A1, “RAF Inhibitors and Their Uses” (ARQULE, INC., priority 2008, published 2010).

Assays:
Assay in all cases: Cell growth inhibition assay (MTS)
Assay type in all cases: cell-based
HCT-116 = conditions: Homo sapiens; HCT-116, colon
Summary of the method: (§1)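 Absorbance of formazan at 492 nm, produced by metabolically active cells reducing MTS with PMS over 4 hr, served as the growth read-out after 72 hours of compound treatment. The IC50 was defined as the concentration halving absorbance.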

NCI-H441 = conditions: Homo sapiens; NCI-H441, lung papillary adenocarcinoma
Summary of the method: as §1

CC5292 = conditions: Homo sapiens; CC5292, MiT
Summary of the method: as §1

GI50 (HCT-116): 6.61 µM
GI50 (NCI-H441): 17.8 µM
SMILES: Cn1ccc(S(=O)(=O)N2CCC[C@@H](Nc3nccc(-c4c(-c5cccc(OCOP(=O)(O)O)c5)nc5occn45)n3)C2)n1 [Compound 19, (R)-(3-(5-(2-(1-(1-methyl-1H-pyrazol-3-ylsulfonyl)piperidin-3-ylamino)pyrimidin-4-yl)imidazo[2,1-b]oxazol-6-yl)phenoxy)methyl dihydrogen phosphate]
GI50 (CC5292): 8.2 µM
